Target: T1, human serum albumin (HSA) (Homo sapiens, UniProt P02768)
T1 construct: gene ALB
Test: intrinsic tryptophan fluorescence quenching titration (Stern-Volmer, double-log), […]-310 K
Format: binding
Settings: read-out: Kb [M^-1] (converted)

T1 sequence (P02768 25-609): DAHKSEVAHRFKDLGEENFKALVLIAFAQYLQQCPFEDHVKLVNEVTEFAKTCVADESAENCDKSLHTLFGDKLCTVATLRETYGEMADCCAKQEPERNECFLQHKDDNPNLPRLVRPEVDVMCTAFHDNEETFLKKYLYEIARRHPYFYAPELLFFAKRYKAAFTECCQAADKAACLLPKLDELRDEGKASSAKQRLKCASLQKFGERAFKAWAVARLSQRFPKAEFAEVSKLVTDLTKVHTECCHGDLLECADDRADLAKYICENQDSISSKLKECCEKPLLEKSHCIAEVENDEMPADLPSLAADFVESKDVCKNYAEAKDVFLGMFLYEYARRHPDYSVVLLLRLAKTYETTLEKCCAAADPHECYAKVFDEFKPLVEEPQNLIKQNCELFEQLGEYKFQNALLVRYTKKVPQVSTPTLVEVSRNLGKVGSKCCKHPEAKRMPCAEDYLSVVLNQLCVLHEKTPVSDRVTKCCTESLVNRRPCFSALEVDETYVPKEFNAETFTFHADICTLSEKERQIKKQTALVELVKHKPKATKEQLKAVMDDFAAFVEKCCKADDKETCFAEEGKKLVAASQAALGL

dichlorido((diphenylmethylidene)hydrazine-κN)(η^6-p-cymene)ruthenium(II) [compound 1]
Kd: 60.6 µM

Source: article PMC12348660, “Synthesis, Characterization, HSA/DNA Binding, and Cytotoxic Activity of [RuCl2(η^6-p-cymene)(bph-κN)] Complex” (Molecules, 2025)
